Laboratory results as given in US20240043400A1, “Octahydroisoquinolinyl Derivatives” (UCB Biopharma SRL, priority 2020, published 2024).

What was measured:
dopamine D1 receptor = molecular target: T1, dopamine D1 receptor (Homo sapiens, UniProt P21728); experiment: cAMP HTRF potentiation assay (in the presence of dopamine); assay type: cell-based; conditions: potentiation of cAMP with [EC20] of dopamine (1.1 nM); LMtk (Ltk−) mouse fibroblast cells expressing the dopamine D1 receptor
T1 construct: host or cells: LMtk (Ltk-) mouse fibroblast cells, kept under Geneticin
T1 sequence (P21728 whole entry): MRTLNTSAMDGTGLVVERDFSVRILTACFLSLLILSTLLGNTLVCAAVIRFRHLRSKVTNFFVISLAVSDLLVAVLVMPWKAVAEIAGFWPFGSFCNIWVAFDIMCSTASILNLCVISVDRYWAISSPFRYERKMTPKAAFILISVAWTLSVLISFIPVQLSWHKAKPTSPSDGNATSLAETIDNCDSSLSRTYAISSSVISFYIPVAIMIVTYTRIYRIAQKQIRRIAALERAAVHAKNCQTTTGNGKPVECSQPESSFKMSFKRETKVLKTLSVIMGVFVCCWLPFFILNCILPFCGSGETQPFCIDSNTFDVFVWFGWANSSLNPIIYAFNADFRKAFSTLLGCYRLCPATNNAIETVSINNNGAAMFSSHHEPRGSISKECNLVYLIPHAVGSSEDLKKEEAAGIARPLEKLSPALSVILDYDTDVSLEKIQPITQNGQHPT
Description: The potentiation assay measures the ability of compounds to increase the levels of cAMP produced by a low-threshold concentration of dopamine. The concentration of dopamine used ([EC20]) is designed to produce 20% stimulation compared to the maximal response (100%) seen with increasing the concentration of dopamine. To measure this potentiation we incubate increasing concentrations of the compound with the [EC20] of dopamine and measure the potentiation as increases in cAMP production. The pEC50 of a compound is the −log 10 of the concentration of the compound which produces 50% of the potentiation of the cAMP levels and the Erel is the relative efficacy, defined as the maximal % potentiation produced by the compound compared to the maximal response produced by increasing concentrations of dopamine (Erel of 1=dopamine maximum response).
Cells were cultured at 37° C. in a humidified atmosphere of 5% CO2. Cells were grown in DMEM-F12+GlutaMAX™-1 medium (GIBCO®, Invitrogen, Merelbeke, Belgium) containing 10% fetal bovine serum (BioWhittaker®, Lonza, Verviers, Belgium), 400 μg/mL Geneticin (GIBCO®), 100 IU/mL Penicillin and 100 IU/mL Streptomycin (Pen-Strep solution, BioWhittaker®).
The measurement of changes in intracellular cyclic adenosinemonophopshpate (cAMP) was determined using the HTRF cAMP dynamic assay kit from CisBio (Codolet, France). Using homogenous time-resolved fluoresence technology, the assay is based on competition between native cAMP produced by cells and cAMP labelled with the dye d2. The tracer binding is determined by an anti-cAMP antibody labeled with cryptate. The effects of the compound alone (agonism) was determined by performing the assay in the absence of dopamine, whilst the effect of the compound as a positive allosteric modulator (PAM) was determined in the presence of an EC20 concentration of dopamine. Cells (20,000 per well) are incubated in 384 plates for 1 h at rt in a final volume of 20 μLHBSS (Lonza, with calcium, magnesium and HEPES buffer 20 mM, pH 7.4) containing: isobutyl methylxanthine (Sigma, 0.1 mM final), varying concentrations of test compound (typically 10^−9.5 M to 10^−4.5 M) in the presence and absence of dopamine (1.1 nM final). The reaction is then terminated and the cells lysed by adding the d2 detection reagent in lysis buffer (10 μL) and the cryptate reagent in lysis buffer (10 μL) according to manufacturer's instructions. This is then incubated for a further 60 min at rt and changes in HTRF fluorescent emission ratio determined according to manufacturer's instructions using an Envision plate reader (Perkin Elmer, Zaventem, Belgium) with laser excitation. All incubations were performed in duplicate and results were compared to a concentration-effect curve to dopamine. (10^−11 M to 10^−6 M).
Data was analyzed using Excel and PRISM (GraphPad Software) to obtain pEC50 and Erel using the 4-parameter logistic equation (DeLean et al, 1978) where Erel is the fitted maximal response of the test compound minus basal expressed as a percentage relative to that obtained with dopamine which was defined as 100%.

[1] = molecular target: T2, human GABAA receptor α1β2 and γ2 subunits (Homo sapiens, UniProt P14867+P18507+P47870); experiment: Automated patch clamp studies on the GABAA receptor cells; assay type: cell-based; conditions: 10 μM compound; 15 μM GABA; CHO-K1 cells; Table B
T2 construct: expressed in transfected cells
T2 sequence (P14867 28-456): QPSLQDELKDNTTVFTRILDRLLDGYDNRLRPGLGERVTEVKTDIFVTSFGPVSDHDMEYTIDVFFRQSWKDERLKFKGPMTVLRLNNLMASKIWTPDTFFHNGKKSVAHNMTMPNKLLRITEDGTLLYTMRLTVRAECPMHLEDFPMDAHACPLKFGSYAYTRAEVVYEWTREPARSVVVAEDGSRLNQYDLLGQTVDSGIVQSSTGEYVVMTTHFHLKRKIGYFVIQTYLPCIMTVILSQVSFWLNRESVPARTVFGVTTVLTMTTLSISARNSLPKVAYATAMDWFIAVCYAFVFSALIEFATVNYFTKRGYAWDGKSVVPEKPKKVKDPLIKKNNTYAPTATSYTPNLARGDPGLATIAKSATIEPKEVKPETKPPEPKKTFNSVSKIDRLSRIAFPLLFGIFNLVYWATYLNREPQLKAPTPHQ
T2 sequence (P47870 25-512 limits assumed): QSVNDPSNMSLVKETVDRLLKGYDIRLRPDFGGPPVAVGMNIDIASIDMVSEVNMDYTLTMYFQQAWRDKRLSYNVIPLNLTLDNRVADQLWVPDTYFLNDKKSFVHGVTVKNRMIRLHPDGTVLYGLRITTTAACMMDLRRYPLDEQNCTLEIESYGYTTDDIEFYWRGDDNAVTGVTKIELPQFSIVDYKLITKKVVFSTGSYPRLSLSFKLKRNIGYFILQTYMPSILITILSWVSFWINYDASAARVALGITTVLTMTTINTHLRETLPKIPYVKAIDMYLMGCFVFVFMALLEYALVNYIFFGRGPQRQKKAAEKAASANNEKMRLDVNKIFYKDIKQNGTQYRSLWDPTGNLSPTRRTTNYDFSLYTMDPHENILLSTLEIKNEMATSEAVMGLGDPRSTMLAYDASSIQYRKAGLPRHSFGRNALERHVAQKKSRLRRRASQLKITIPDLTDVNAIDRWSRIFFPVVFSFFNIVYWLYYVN
T2 sequence (P18507 40-475): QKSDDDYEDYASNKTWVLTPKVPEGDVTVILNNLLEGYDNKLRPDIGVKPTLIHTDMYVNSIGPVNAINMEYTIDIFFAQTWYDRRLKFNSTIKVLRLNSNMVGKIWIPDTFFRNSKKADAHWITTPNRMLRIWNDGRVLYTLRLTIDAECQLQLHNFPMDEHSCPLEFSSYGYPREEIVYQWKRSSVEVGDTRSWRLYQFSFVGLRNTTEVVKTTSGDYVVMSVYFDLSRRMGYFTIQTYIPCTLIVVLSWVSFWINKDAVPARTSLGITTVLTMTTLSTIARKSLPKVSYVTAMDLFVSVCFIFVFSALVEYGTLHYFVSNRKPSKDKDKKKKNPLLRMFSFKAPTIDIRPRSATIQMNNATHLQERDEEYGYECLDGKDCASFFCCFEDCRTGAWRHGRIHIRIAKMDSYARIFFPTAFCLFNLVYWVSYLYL
Description: CHO-K1 cells stably expressing human GABAA receptor α1β2 and γ2 subunits were used. The cells were harvested using trypsin and maintained in serum-free medium at room temperature. The cells were washed and re-suspended in extracellular solution before testing.
Experiments on human GABAA (α1β2γ2) channels were conducted using an automated patch clamp assay (lonFlux™ HT). The external solution for recording GABAA currents was composed of sodium chloride 137 mM, potassium chloride 4 mM, calcium chloride 1.8 mM, magnesium chloride 1 mM, HEPES 10 mM, and glucose 10 mM. Both external and internal solutions were titrated with NaOH or KOH to obtain a pH of 7.35 and 7.3, respectively. The internal pipette solution contained potassium fluoride 70 mM, potassium chloride 60 mM, sodium chloride 70 mM, HEPES 5 mM, EGTA 5 mM, and Magnesium ATP 4 mM. The final concentration of vehicle used to dilute compounds was 0.33% DMSO in each well. Bicuculline (0.032 to 100 μM) was used as positive control inhibitor. GABA (15 μM) was used as agonist. All recordings were obtained from a holding potential of −60 mV.
The compound addition sequence was the following: one addition of the EC80 concentration of GABA was added to establish baseline response. Each concentration of compound was applied for 30 seconds followed by the addition of 15 μM GABA in the presence of the compound for 2 seconds. The process was repeated with the next ascending concentration of compound. Peak inward currents in response to the GABA additions in the presence of a single concentration of compound were measured. All compound data have been normalized to the baseline peak current induced by addition of 15 μM GABA for 2 seconds.

CYP3A4 = molecular target: T3, CYP3A4 (Homo sapiens, UniProt P08684); experiment: In vitro assessment of CYP3A4 inhibition potential using cryopreserved human microsomes; assay type: in vitro ADME; conditions: human, cryopreserved human microsomes (pooled donors), probe midazolam 2.5 μM (1-hydroxymidazolam formation), 20 μM compound, human microsomes 0.25 mg/ml, Table C
T3 construct: cryopreserved human microsomes (pooled donors); from tissue
T3 sequence (P08684 whole entry): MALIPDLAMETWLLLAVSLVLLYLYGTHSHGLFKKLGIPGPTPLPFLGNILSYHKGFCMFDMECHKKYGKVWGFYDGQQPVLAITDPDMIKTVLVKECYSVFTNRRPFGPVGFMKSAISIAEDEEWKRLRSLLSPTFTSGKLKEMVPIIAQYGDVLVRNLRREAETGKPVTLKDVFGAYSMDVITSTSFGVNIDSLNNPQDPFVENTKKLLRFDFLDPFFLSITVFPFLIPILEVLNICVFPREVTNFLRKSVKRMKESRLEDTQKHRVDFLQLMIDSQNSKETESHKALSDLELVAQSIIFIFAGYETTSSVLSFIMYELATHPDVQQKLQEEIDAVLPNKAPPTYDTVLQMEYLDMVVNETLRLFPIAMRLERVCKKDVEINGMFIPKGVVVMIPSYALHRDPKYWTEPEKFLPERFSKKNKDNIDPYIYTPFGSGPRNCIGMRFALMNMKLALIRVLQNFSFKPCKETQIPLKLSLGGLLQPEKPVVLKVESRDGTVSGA
Description: The objective of the human microsome assay is to characterize the inhibition potential of Compound of formula (I) by measuring the CYP3A4 activities after its co-incubation with midazolam, a specific CYP3A4 substrate.
To this aim, cryopreserved human microsomes (pooled donors) are divided on a 48 well collagen coated plate so that the final concentration is 0.25 mg/ml. The UCB compound is then added in the wells at 20 μM concentration in duplicate. After 30 min incubation, midazolam is added at 2.5 μM concentration. After 15 min, an aliquot is removed and placed into an equal volume of methanol containing internal standard. The samples are centrifuged at 2500 rpm at 4° C. for 20 min. An aliquot of supernatant is diluted with deionised water and levels of 1-hydroxymidazolam is quantified using generic LC MS/MS methods.
The concentrations are compared to those obtained after midazolam incubation at the same concentration but without UCB compound pre-incubation. The results are expressed as % of inhibition.

Compound	EC50 (dopamine D1 receptor) [nM]	% GABAA inhibition [1] [%]	inhibition at 15 min, 20 μM (CYP3A4) [%]
C[C@H]1[C@H]2CCC[C@@H](CCC(C)(C)O)[C@@H]2CCN1C(=O)Cc1c(Cl)cnc(CO)c1Cl [Example 23, 1-[(1S,4aS,5S,8aS)-5-(3-hydroxy-3-methyl-butyl)-1-methyl-3,4,4a,5,6,7,8,8a-octahydro-1H-isoquinolin-2-yl]-2-[3,5-dichloro-2-(hydroxymethyl)-4-pyridyl]ethanone]	50.1		
C[C@H]1[C@H]2CCC[C@@H](CCC(C)(C)O)[C@@H]2CCN1C(=O)Cc1c(Cl)ccc2c1c(Cl)nn2C [Example 22, 1-[(1S,4aS,5S,8aS)-5-(3-hydroxy-3-methyl-butyl)-1-methyl-3,4,4a,5,6,7,8,8a-octahydro-1H-isoquinolin-2-yl]-2-(3,5-dichloro-1-methyl-indazol-4-yl)ethanone]	200		
C[C@H]1[C@H]2CCC[C@@H]([C@H](O)C(F)(F)F)[C@@H]2CCN1C(=O)Cc1c(Cl)ccc(OC(F)F)c1Cl [Example 19, 1-[(1 S,4aR,5R,8aS)-1-methyl-5-[(1 S)-2,2,2-trifluoro-1-hydroxy-ethyl]-3,4,4a,5,6,7,8,8a-octahydro-1H-isoquinolin-2-yl]-2-[2,6-dichloro-3-(difluoromethoxy)phenyl]ethanone]	200		
C[C@H]1[C@@H]2CCC[C@H]([C@H](O)C(F)(F)F)[C@H]2C[C@H](CO)N1C(=O)Cc1c(Cl)ccc2c1c(Cl)nn2C [Example 26-B, 1-[(1S,3R,4aS,5S,8aR)-3-(hydroxymethyl)-1-methyl-5-[(1S)-2,2,2-trifluoro-1-hydroxy-ethyl]-3,4,4a,5,6,7,8,8a-octahydro-1H-isoquinolin-2-yl]-2-(3,5-dichloro-1-methyl-indazol-4-yl)ethanone]	50.1		
COc1ccc(C#N)c(CC(=O)N2CC[C@@H]3[C@H](CCC[C@H]3C(C)(O)C(F)(F)F)[C@@H]2C)c1Cl (single isomer, unassigned) [Example 7-B]	794	1.4	
C[C@H]1[C@H]2CCC[C@@H]([C@@H](O)C(F)(F)F)[C@@H]2CCN1C(=O)Cc1c(Cl)cnc(C(C)(O)C(F)F)c1Cl (single isomer, unassigned) [Example 16-B]	79.4		
CC(O)c1ncc(Cl)c(CC(=O)N2CC[C@@H]3[C@H](CCC[C@H]3[C@](C)(O)C(F)F)[C@@H]2C)c1Cl (single isomer, unassigned) [Example 18-B]	158		
CC(O)c1ncc(Cl)c(CC(=O)N2CC[C@H]3[C@H](CCC(C)(C)O)CCC[C@@H]3[C@@H]2C)c1Cl (single isomer, unassigned) [Example 24-B]	39.8		
COc1ccc(C#N)c(CC(=O)N2CC[C@@H]3[C@H](CCC[C@H]3c3cn[nH]n3)[C@@H]2C)c1Cl [Example 25, 2-[2-[(1S,4aR,5R,8aS)-1-methyl-5-(2H-triazol-4-yl)-3,4,4a,5,6,7,8,8a-octahydro-1H-isoquinolin-2-yl]-2-oxoethyl]-3-chloro-4-methoxybenzonitrile]	631		
C[C@H]1[C@H]2CCC[C@@H]([C@H](O)C(F)(F)F)[C@@H]2CCN1C(=O)Cc1c(Cl)cnc(C(O)C(F)F)c1Cl (single isomer, unassigned) [Example 15-B]	25.1		
CC(O)c1ncc(Cl)c(CC(=O)N2CC[C@H]3[C@H]([C@H](O)C(F)F)CCC[C@@H]3[C@@H]2C)c1Cl (single isomer, unassigned) [Example 17-B]	126		
CC(O)c1ncc(Cl)c(CC(=O)N2CC[C@H]3[C@H]([C@H](O)C(F)F)CCC[C@@H]3[C@@H]2C)c1Cl (single isomer, unassigned) [Example 17-A]	158		
C[C@H]1[C@H]2CCC[C@@H]([C@H](O)C(F)(F)F)[C@@H]2CCN1C(=O)Cc1c(Cl)cnc(C(O)C(F)F)c1Cl (single isomer, unassigned) [Example 15-A]	39.8		≤ 20
CC(O)c1ncc(Cl)c(CC(=O)N2CC[C@H]3[C@H](CCC(C)(C)O)CCC[C@@H]3[C@@H]2C)c1Cl (single isomer, unassigned) [Example 24-A]	79.4		
C[C@H]1[C@H]2CCC[C@@H]([C@H](O)C(F)(F)F)[C@@H]2CCN1C(=O)Cc1c(Cl)ccc2c1c(Cl)cn2C [Example 27, 1-[(1 S,4aR,5R,8aS)-1-methyl-5-[(1 S)-2,2,2-trifluoro-1-hydroxy-ethyl]-3,4,4a,5,6,7,8,8a-octahydro-1H-isoquinolin-2-yl]-2-(3,5-dichloro-1-methyl-indol-4-yl)ethanone]	251		
CC(O)c1ncc(Cl)c(CC(=O)N2CC[C@@H]3[C@H](CCC[C@H]3[C@](C)(O)C(F)F)[C@@H]2C)c1Cl (single isomer, unassigned) [Example 18-A]	200		
C[C@H]1[C@H]2CCC[C@@H]([C@H](O)C(F)(F)F)[C@@H]2C[C@H](CO)N1C(=O)Cc1c(Cl)ccc2c1c(Cl)nn2C [Example 26-A, 1-[(1S,3R,4aR,5R,8aS)-3-(hydroxymethyl)-1-methyl-5-[(1S)-2,2,2-trifluoro-1-hydroxy-ethyl]-3,4,4a,5,6,7,8,8a-octahydro-1H-isoquinolin-2-yl]-2-(3,5-dichloro-1-methyl-indazol-4-yl)ethanone]	3160		
COc1ccc(C#N)c(CC(=O)N2CC[C@H]3C(C#CC(C)(C)O)CCC[C@@H]3[C@@H]2C)c1Cl (stereo partly drawn) [Example 20, 2-[2-[(1S,4aS,8aS)-5-(3-hydroxy-3-methyl-but-1-ynyl)-1-methyl-3,4,4a,5,6,7,8,8a-octahydro-1H-isoquinolin-2-yl]-2-oxo-ethyl]-3-chloro-4-methoxy-benzonitrile]	158		
COc1ccc(C#N)c(CC(=O)N2CC[C@H]3[C@H](CCC(C)(C)O)CCC[C@@H]3[C@@H]2C)c1Cl [Example 21, 2-[2-[(1S,4aS,5S,8aS)-5-(3-hydroxy-3-methyl-butyl)-1-methyl-3,4,4a,5,6,7,8,8a-octahydro-1H-isoquinolin-2-yl]-2-oxo-ethyl]-3-chloro-4-methoxy-benzonitrile]	50.1		
